Laboratory results from patent US20140288044A1, “COMPOSITIONS AND THERAPEUTIC USES OF IKK-RELATED KINASE EPSILON AND TANKBINDING KINASE 1 INHIBITORS” (Alzheimer's Institute of America, Inc., priority 2011, published 2014).

System: IKKε-mediated phosphorylation of IRF3
Test: ELISA for in-situ phosphorylation of IRF3 (phospho-Ser396) in HEK293T cells cotransfected with IRF3 and IKKε
Assay type: cell-based
Settings: Homo sapiens, HEK-293T, 20 h, HEK293T cells, 20 hours; range given from about 1 μM to about 250 nM; read-out: IC50, in-situ IKKε-mediated phosphorylation of IRF3
Method: HEK293T cells were cotransfected in a 10-cm dish with IRF3 and IKKε expression plasmids using Lipofectamine 2000 (Invitrogen, Carlsbad, Calif.). The following day, cells were replated at 20,000 per well in 96-well plates and treated with test compounds (compounds according to Formulae I and/or II) for 20 hours. Cell lysates were prepared and analyzed using an ELISA for phospho-Ser396 (anti-IRF3 capture antibody, Santa Cruz Biotechnology, Inc., Santa Cruz, Calif.; anti-p-Ser396 IRF3 detection antibody, Cell Signaling, Danvers, Mass.). pIRF3 levels in compound treated cells were normalized to DMSO treated cells (no compound). Cell viability was assayed in a parallel set of plates to monitor cytotoxic effects of the test compounds (CellTiter-Glo, Promega, Inc., Madison, Wis.). TBK1 activity was tested by Western blotting using a phospho-specific IRF7 antibody. Similar to above, HEK293T cells were transfected with IRF7 and TBK1 expression plasmids. Cells were seeded in 12-well plates at 150,000 per well and treated overnight with test compounds. Protein lysates were prepared and processed for Western blotting followed by detection using a phosphor-Ser477/Ser479 IRF7 antibody (BD Biosciences, San Jose, Calif.)

Compound	IC50 [nM]
COC1CN(C(=O)c2cncc(Nc3nccc(-c4ccc(OC5CCOCC5)c(C#N)c4)n3)c2)C1 [Example Compound 171, 5-[2-({5-[(3-Methoxyazetidin-1-yl)carbonyl]pyridin-3-yl}amino)pyrimidin-4-yl]-2-(tetrahydro-2H-pyran-4-yloxy)benzonitrile]	250 to 1000
Cc1ccc(Nc2nccc(-c3ccc(O[C@@H]4CCN(C(=O)CO)C4)c(C#N)c3)n2)cn1 [Example Compound 118, 2-{[(3R)-1-(Hydroxyacetyl)pyrrolidin-3-yl]oxy}-5-{2-[(6-methylpyridin-3-yl)amino]pyrimidin-4-yl}benzonitrile]	250 to 1000
COC1CN(c2cc(Nc3nccc(-c4ccc(NC(=O)C(C)C)c(C#N)c4)n3)ccn2)C1 [Example Compound 247, N-[2-Cyano-4-(2-{[2-(3-methoxyazetidin-1-yl)pyridin-4-yl]amino}pyrimidin-4-yl)phenyl]-2-methylpropanamide]	250 to 1000
N#Cc1cc(-c2ccnc(Nc3ccnc(C(F)(F)F)c3)n2)ccc1O[C@@H]1CCN(C(=O)CO)C1 [Example Compound 122, 2-{[(3R)-1-(Hydroxyacetyl)pyrrolidin-3-yl]oxy}-5-(2-{[2-(trifluoromethyl)pyridin-4-yl]amino}pyrimidin-4-yl)benzonitrile]	250 to 1000
N#Cc1cc(-c2ccnc(Nc3ccnc(N4CCC[C@H]4CO)c3)n2)ccc1OC1CCOCC1 [Example Compound 180, 5-[2-({2-[(2S)-2-(Hydroxymethyl)pyrrolidin-1-yl]pyridin-4-yl}amino)pyrimidin-4-yl]-2-(tetrahydro-2H-pyran-4-yloxy)benzonitrile]	250 to 1000
CNCc1cncc(Nc2nccc(-c3ccc(OC4CCOCC4)c(C#N)c3)n2)c1 [Example Compound 203, 5-[2-({5-[(Methylamino)methyl]pyridin-3-yl}amino)pyrimidin-4-yl]-2-(tetrahydro-2H-pyran-4-yloxy)benzonitrile]	250 to 1000
CN(C)c1ccc(Nc2nccc(-c3ccc(OC4CCN(C(=O)CO)C4)c(C#N)c3)n2)cn1 (stereo not shown) [Example Compound 192, 5-(2-{[6-(Dimethylamino)pyridin-3-yl]amino}pyrimidin-4-yl)-2-{[1-(hydroxyacetyl)pyrrolidin-3-yl]oxy}benzonitrile]	250 to 1000

Same assay, conditions: Homo sapiens, HEK-293T, 20 h, HEK293T cells, 20 hours; read-out: IC50, in-situ IKKε-mediated phosphorylation of IRF3

Compound	IC50 [nM]
COc1cc(Nc2nccc(-c3ccc(OC4CCN(C(=O)CO)CC4)c(C#N)c3)n2)ccn1 [Example Compound 131, 2-{[1-(Hydroxyacetyl)piperidin-4-yl]oxy}-5-{2-[(2-methoxypyridin-4-yl)amino]pyrimidin-4-yl}benzonitrile]	100 to 250
N#Cc1cc(-c2ccnc(Nc3cncc(C(=O)N4CCN(CCO)CC4)c3)n2)ccc1OC1CCOCC1 [Example Compound 174, 5-{2-[(5-{[4-(2-Hydroxyethyl)piperazin-1-yl]carbonyl}pyridin-3-yl)amino]pyrimidin-4-yl}-2-(tetrahydro-2H-pyran-4-yloxy)benzonitrile]	1000 to 5000
Cc1ccc(Nc2nccc(-c3ccc(OCC4CC4)c(C#N)c3)n2)cn1 [Example Compound 112, 2-(Cyclopropylmethoxy)-5-{2-[(6-methylpyridin-3-yl)amino]pyrimidin-4-yl}benzonitrile]	100 to 250
CC(C)C(=O)Nc1ccc(-c2ccnc(Nc3ccnc(N4CC(O)C4)c3)n2)cc1C#N [Example Compound 246, N-[2-Cyano-4-(2-{[2-(3-hydroxyazetidin-1-yl)pyridin-4-yl]amino}pyrimidin-4-yl)phenyl]-2-methylpropanamide]	1000 to 5000
CN(C)c1ccc(Nc2nccc(-c3ccc(OC4CCOCC4)c(C#N)c3)n2)cn1 [Example Compound 152, 5-(2-{[6-(Dimethylamino)pyridin-3-yl]amino}pyrimidin-4-yl)-2-(tetrahydro-2H-pyran-4-yloxy)benzonitrile]	100 to 250
N#Cc1cc(-c2ccnc(Nc3ccc[n+]([O-])c3)n2)ccc1OC1CCOCC1 [Example Compound 236, 5-{2-[(1-Oxidopyridin-3-yl)amino]pyrimidin-4-yl}-2-(tetrahydro-2H-pyran-4-yloxy)benzonitrile]	1000 to 5000
N#Cc1cc(-c2ccnc(Nc3ccc(N4CCC(N5CCOCC5)C4)nn3)n2)ccc1OC1CCOCC1 (stereo not shown) [Example Compound 177, 5-[2-({6-[3-(Morpholin-4-yl)pyrrolidin-1-yl]pyridazin-3-yl}amino)pyrimidin-4-yl]-2-(tetrahydro-2H-pyran-4-yloxy)benzonitrile]	1000 to 5000
CNCc1cncc(Nc2nccc(-c3ccc(OC4CCOCC4)c(C#N)c3)n2)c1 [Example Compound 202, 5-[2-({5-[(Methylamino)methyl]pyridin-3-yl}amino)pyrimidin-4-yl]-2-(tetrahydro-2H-pyran-4-yloxy)benzonitrile]	100 to 250
N#Cc1cc(-c2ccnc(Nc3ccc(C4CC4)nc3)n2)ccc1NC(=O)C1CC1 [Example Compound 140, N-(2-Cyano-4-{2-[(6-cyclopropylpyridin-3-yl)amino]pyrimidin-4-yl}phenyl)cyclopropanecarboxamide]	< 100
N#Cc1cc(-c2ccnc(Nc3ccc(N4CCOCC4)cn3)n2)ccc1OC1CCOCC1 [Example Compound 216, 5-(2-{[5-(Morpholin-4-yl)pyridin-2-yl]amino}pyrimidin-4-yl)-2-(tetrahydro-2H-pyran-4-yloxy)benzonitrile]	1000 to 5000
Cc1nccn1-c1ccc(Nc2nccc(-c3ccc(OC4CCOCC4)c(C#N)c3)n2)cn1 [Example Compound 73, 5-(2-{[6-(2-Methyl-1H-imidazol-1-yl)pyridin-3-yl]amino}pyrimidin-4-yl)-2-(tetrahydro-2H-pyran-4-yloxy)benzonitrile]	< 100
Cc1ccc(Nc2nccc(-c3ccc(OC4CCN(C(=O)[C@H](C)O)CC4)c(C#N)c3)n2)c[n+]1[O-] [Example Compound 235, 2-({1-[(2S)-2-Hydroxypropanoyl]piperidin-4-yl}oxy)-5-{2-[(6-methyl-1-oxidopyridin-3-yl)amino]pyrimidin-4-yl}benzonitrile]	1000 to 5000
N#Cc1cc(-c2ccnc(Nc3ccnc(C(=O)N4CCCC4)c3)n2)ccc1OC1CCN(C(=O)CO)CC1 [Example Compound 233, 2-{[1-(Hydroxyacetyl)piperidin-4-yl]oxy}-5-(2-{[2-(pyrrolidin-1-ylcarbonyl)pyridin-4-yl]amino}pyrimidin-4-yl)benzonitrile]	1000 to 5000
CN(C)c1ccc(-c2ccc(Nc3nccc(-c4ccc(OC5CCOCC5)c(C#N)c4)n3)cn2)cn1 [Example Compound 169, 5-(2-{[6′-(Dimethylamino)-2,3′-bipyridin-5-yl]amino}pyrimidin-4-yl)-2-(tetrahydro-2H-pyran-4-yloxy)benzonitrile]	1000 to 5000
COC1CCN(c2cc(Nc3nccc(-c4ccc(OC5CCOCC5)c(C#N)c4)n3)ccn2)C1 (stereo not shown) [Example Compound 181, 5-(2-{[2-(3-Methoxypyrrolidin-1-yl)pyridin-4-yl]amino}pyrimidin-4-yl)-2-(tetrahydro-2H-pyran-4-yloxy)benzonitrile]	1000 to 5000
N#Cc1cc(-c2ccnc(Nc3ccc(N4CCOCC4)nc3)n2)ccc1OC1CCOCC1 [Example Compound 6, 5-(2-{[6-(Morpholin-4-yl)pyridin-3-yl]amino}pyrimidin-4-yl)-2-(tetrahydro-2H-pyran-4-yloxy)benzonitrile]	100 to 250
N#Cc1cc(-c2ccnc(Nc3ccc(C(=O)N4CCN(CCO)CC4)s3)n2)ccc1OC1CCOCC1 [Example Compound 163, 5-{2-[(5-{[4-(2-Hydroxyethyl)piperazin-1-yl]carbonyl}thiophen-2-yl)amino]pyrimidin-4-yl}-2-(tetrahydro-2H-pyran-4-yloxy)benzonitrile]	100 to 250

Molecular target: T1, IKKε (Homo sapiens, UniProt Q14164)
T1 construct: His-tag (in-house Sf9 preparation) or GST-tag (purchased Invitrogen preparation); these are alternatives, not both on one protein; host or cells: Sf9 cells
T1 sequence (Q14164 1-716): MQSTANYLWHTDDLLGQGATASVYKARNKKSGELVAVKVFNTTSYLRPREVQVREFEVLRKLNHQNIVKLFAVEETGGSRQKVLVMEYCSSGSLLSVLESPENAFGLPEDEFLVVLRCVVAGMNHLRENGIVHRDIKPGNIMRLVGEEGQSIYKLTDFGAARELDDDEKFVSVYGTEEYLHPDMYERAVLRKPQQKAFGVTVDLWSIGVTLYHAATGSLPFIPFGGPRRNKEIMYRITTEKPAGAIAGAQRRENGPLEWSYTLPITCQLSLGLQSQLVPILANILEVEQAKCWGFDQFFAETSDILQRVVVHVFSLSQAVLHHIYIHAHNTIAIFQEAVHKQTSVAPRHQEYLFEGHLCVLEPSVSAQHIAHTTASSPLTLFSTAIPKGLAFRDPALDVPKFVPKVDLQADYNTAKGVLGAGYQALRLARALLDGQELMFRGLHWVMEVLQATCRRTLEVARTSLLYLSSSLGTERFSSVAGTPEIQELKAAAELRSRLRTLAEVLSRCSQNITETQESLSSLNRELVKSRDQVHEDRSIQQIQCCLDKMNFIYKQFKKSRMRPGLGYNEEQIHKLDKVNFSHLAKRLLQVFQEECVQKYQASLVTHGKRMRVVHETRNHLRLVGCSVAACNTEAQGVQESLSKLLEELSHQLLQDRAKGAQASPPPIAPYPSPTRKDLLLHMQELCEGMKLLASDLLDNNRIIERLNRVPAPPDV
Test: In-vitro IKKε kinase assay (radiolabelled ATP, filterplate)
Assay type: biochemical
Settings: in-vitro IKKε kinase inhibition assays; given as 0.005 μM (5 nM); read-out: IKKε kinase inhibitory activity (IC50 value)
Method in brief: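 His-tagged IKKε from Sf9 cells or GST-tagged IKKε, with myelin basic protein, casein or dephosphorylated casein as substrate and 32 μM ATP (2× Km) plus [γ^33]ATP. "Normal" assay used 0.1 μg/ml enzyme; "sensitized" used 0.015 μg/ml with dephosphorylated casein only. Stopped after 30–45 min with phosphoric acid; P-81 filter counts normalized to DMSO after background subtraction.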

Compound	IC50 [nM]
COc1cc(Nc2nccc(-c3ccc(OC4CCN(C(=O)CO)CC4)c(C#N)c3)n2)ccn1 [Example Compound 131, 2-{[1-(Hydroxyacetyl)piperidin-4-yl]oxy}-5-{2-[(2-methoxypyridin-4-yl)amino]pyrimidin-4-yl}benzonitrile]	< 5
